Test [1] deals with polymicrobial sepsis induced by cecal ligation and puncture. As to the kind of experiment: Sepsis induced acute kidney injury model (cecal ligation and puncture, CLP). The settings on record: rat CLP, 20 mg/kg 2 hours prior to surgery; for kidney proinflammatory gene expression (IL6, TNFa, IL-1b, CCl2, KC): kidneys 24 hours post-surgery, Q-PCR; for survival: survival over 24 hours.
Procedure: Survival was recorded over the following 24 hours.
24 hours post-surgery, the kidneys were collected for gene expression analysis by Q-PCR.
24 hours post-surgery, plasma MCP-1 concentration was measured by ELISA.
We used a rat CLP model to evaluate the effects of compounds described here on sepsis. Briefly, the rat cecum was ligated with sterile silk thread, and then cecum was punctured twice with a needle, gently squeezed to express a small amount of fecal material, then the abdominal incision was closed. […] In addition, at 24 hours post-surgery, the kidneys were collected for gene expression analysis by Q-PCR and plasma was collected for measurement of plasma MCP-1 concentrations by ELISA.

Test [2] deals with innate immunity gene expression in kidney. Kind of test: Inhibition of activated ALPK1 in kidney: innate immunity gene expression after ALPK1 agonist. It counts as in vivo, Sprague-Dawley (SD) rats. The settings on record: SD rats, 4, 10 or 25 mg/kg oral 2 hours prior to agonist ip, kidney 3 hours after agonist, RT-PCR. As for the experimental part: FIG. 2: Treatment groups were administered 4, 10 or 25 mg/kg of the ALPK1 inhibitor A0176 2 hours prior to the agonist, D-glycero-D-manno-6-fluoro-heptose-1β-S-ADP.
To test the effects of the ALPK1 inhibitors on the expression of innate immunity genes activated upon ALPK1 activation, SD rats were orally administered ALPK1 inhibitors followed by activation of innate immunity genes by intraperitoneal administration of an ALPK1 agonist, D-glycero-D-manno-6-fluoro-heptose-1β-S-ADP. Kidney tissue was harvested and assayed for gene expression. Briefly, Twenty male Sprague-Dawley (SD) rats were randomly divided into five groups. The normal group was given vehicle (0.5% MC) orally. After 2 hours, PBS was given by ip injection. The control group was given vehicle (0.5% MC) orally. After 2 hours, D-glycero-D-manno-6-fluoro-heptose-1β-S-ADP (50 μpk) was given by ip injection. The other 3 groups were given the ALPK1 inhibitor A0176 (4, 10 and 25 mpk) orally. After 2 hours, D-glycero-D-manno-6-fluoro-heptose-1β-S-ADP (50 μpk) was given by ip injection. […] Quantitative PCR was conducted using AceQ qPCR SYBR Green Master Mix Kit (Vazyme, Nanjing, China) on the QuantStudio 5 applied biosystems (Thermo scientific, USA). The relative mRNA levels were calculated using the 2-ΔΔCT method, and HPRT was used as a reference for gene expression normalization. […]

For the next test, the target named is ALPK1 (Homo sapiens (Human), UniProt Q96QP1). Kind of test: ALPK1 in vitro kinase assay (HTRF of TIFA phosphorylation). It counts as biochemical. A general note: Time-resolved FRET reads energy transfer from a long-lived donor to a nearby acceptor.
Test [3] concerns ALPK1-dependent NFκB reporter gene activation in HEK293 cells stably expressing an NF-kB reporter (G9 cells). Kind of test: NFκB gene reporter alkaline phosphatase assay. It counts as cell-based. As to conditions: read-out: NFkB assay IC50. An outline of the steps: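 Inhibition of ALPK1-driven NF-kB activation is measured as reduced reporter phosphatase activity after agonist challenge with D-glycero-D-manno-6-fluoro-heptose-1β-S-ADP. Cells receive serially diluted compound 30 min beforehand. Values are IC50s from non-linear regression.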

A further test addresses hALPK1-V1092A (Homo sapiens (Human), UniProt Q96QP1, V1092A). Kind of test: cell-based.

Structures are written as SMILES. Read-outs that look alike come from different tables or passages of the source.

ALPK1, sequence (Q96QP1 whole entry): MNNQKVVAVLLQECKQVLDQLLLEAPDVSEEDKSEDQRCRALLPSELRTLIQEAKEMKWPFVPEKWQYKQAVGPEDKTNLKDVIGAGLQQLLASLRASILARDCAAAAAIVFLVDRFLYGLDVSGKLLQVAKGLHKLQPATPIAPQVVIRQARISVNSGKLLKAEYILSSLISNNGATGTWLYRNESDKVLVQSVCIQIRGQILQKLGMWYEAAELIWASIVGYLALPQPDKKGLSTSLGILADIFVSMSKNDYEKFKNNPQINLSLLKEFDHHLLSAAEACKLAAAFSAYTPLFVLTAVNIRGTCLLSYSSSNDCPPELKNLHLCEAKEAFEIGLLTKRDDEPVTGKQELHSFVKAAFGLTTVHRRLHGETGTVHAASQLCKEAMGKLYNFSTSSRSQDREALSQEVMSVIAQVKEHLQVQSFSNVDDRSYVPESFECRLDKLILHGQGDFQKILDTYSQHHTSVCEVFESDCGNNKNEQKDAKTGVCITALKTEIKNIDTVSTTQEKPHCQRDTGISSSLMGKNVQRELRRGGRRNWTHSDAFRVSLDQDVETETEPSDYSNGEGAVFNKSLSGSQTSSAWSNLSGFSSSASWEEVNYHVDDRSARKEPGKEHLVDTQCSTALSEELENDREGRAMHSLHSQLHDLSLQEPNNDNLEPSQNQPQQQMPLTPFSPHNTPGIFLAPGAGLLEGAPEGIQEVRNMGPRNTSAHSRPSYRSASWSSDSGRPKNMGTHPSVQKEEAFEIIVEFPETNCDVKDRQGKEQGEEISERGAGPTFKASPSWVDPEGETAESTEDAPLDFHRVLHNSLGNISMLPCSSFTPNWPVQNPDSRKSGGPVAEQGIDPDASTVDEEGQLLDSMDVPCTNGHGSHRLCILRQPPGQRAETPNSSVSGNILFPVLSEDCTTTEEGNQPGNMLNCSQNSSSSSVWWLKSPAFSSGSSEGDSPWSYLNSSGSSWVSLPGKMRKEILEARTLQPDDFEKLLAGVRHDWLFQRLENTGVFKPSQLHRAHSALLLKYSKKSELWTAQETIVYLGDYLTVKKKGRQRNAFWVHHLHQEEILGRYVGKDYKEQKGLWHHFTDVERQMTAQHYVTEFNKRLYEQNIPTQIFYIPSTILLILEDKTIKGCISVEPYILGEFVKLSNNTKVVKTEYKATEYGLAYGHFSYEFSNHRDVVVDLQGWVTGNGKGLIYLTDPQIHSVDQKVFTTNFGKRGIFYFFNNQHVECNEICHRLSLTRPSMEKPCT
hALPK1-V1092A, sequence (Q96QP1 whole entry V1092A): as the sequence (Q96QP1 whole entry) above, with V1092A counted along it
Procedure for hALPK1-V1092A: Accordingly, we used IL-8 secretion as an indicator of activated ALPK1 inhibition in cells expressing these mutations.
Transfection was performed according to manufacturer's protocols (Lipofectamine™ 3000, ThermoFisher). Transfected cells were selected, seeded onto 96-well plates and treated with serial dilutions of the test compounds for 6.5 hr. Following treatment, cell viability was determined using a luminescent cell viability assay (Cell Counting-Lite Assay or “CCL Assay” from Vazyme Biotech Co., Ltd.) and cell free supernatants were collected and analyzed for IL-8 protein by IL-8 ELISA as described above.
Fresh medium and compound were added at 18 hours. Cell viability and IL-8 secretion were determined 6 hours after the second addition of compound, using the CCL assay and IL-8 ELISA as described above.

For `C#C[C@@](C)(c1ccc(Cl)cc1)c1csc(NC(=O)NCCO)n1` [Example A0176], in test [1], the “kidney proinflammatory gene expression (IL6, TNFa, IL-1b, CCl2, KC)” value is recorded as “decreased expression of kidney proinflammatory genes” and the survival result is “improved the animals' survival rate”. In addition, in test [1] (plasma 24 hours post-surgery, ELISA), the “plasma MCP-1 concentration” value is “improved the plasma MCP-1 levels”. The “kidney gene expression of innate immunity genes (MCP-1 (CCL-2), CCL-7, CXCL-1, CXCL-10, IL-1p, IL-6 mRNA)” value in test [2] was “dose-dependent inhibition of gene expression levels”.
By IC50 is commonly meant the concentration that inhibits the measured activity by half. As for `C#C[C@@](C)(c1ccc(Cl)cc1)c1csc(NC(=O)N2CC(CN3CCNCC3)C2)n1` (stereo in doubt) [Example A292, N-(4-(2-(4-chlorophenyl)but-3-yn-2-yl)thiazol-2-yl)-3-(piperazin-1-ylmethyl)azetidine-1-carboxamide], the IC50 against ALPK1 was determined as 43 nM; in test [3] (Homo sapiens, HEK293), 650 nM; at hALPK1-V1092A it was 547 nM.
Taken in the same sequence, the figures for `C#CC(C)(c1ccc(Cl)cc1)c1csc(NC(=O)NCC(O)CO)n1` (centres unmarked) [Example A244, 1-(4-(2-(4-chlorophenyl)but-3-yn-2-yl)thiazol-2-yl)-3-(2,3-dihydroxypropyl)urea] were 72 nM, 1030 nM and 4790 nM.
For the compound `C#C[C@@](C)(c1ccc(Cl)cc1)c1csc(NC(=O)NCCC(C)(C)O)n1` [Example A249, (S)-1-(4-(2-(4-chlorophenyl)but-3-yn-2-yl)thiazol-2-yl)-3-(3-hydroxy-3-methylbutyl)urea], the IC50 against ALPK1 amounted to 128 nM; in test [3] (Homo sapiens, HEK293) it was 670 nM; at hALPK1-V1092A it was 11700 nM.
The matching figures for `C#C[C@@](C)(c1ccc(Cl)cc1)c1csc(NC(=O)NCCO)n1` [Example A176, (S)-1-(4-(2-(4-chlorophenyl)but-3-yn-2-yl)thiazol-2-yl)-3-(2-hydroxyethyl)urea]: 5.4 nM, 280 nM and 1550 nM.
The matching figures for `C#C[C@](C)(c1ccc(OC)cc1)c1csc(NC(=O)NCCS(N)(=O)=O)n1` [Example A310, 2-(3-(4-(2-(4-methoxyphenyl)but-3-yn-2-yl)thiazol-2-yl)ureido)ethanesulfona-mide]: 223 nM, 980 nM and 1910 nM.
Taken in the same sequence, the figures for `C#C[C@@](C)(c1ccc(OC)cc1)c1csc(NC(=O)NCCS(N)(=O)=O)n1` [Example A311, 2-(3-(4-(2-(4-methoxyphenyl)but-3-yn-2-yl)thiazol-2-yl)ureido)ethanesulfona-mide] were 95 nM, 660 nM and 1160 nM.
Consider `C#C[C@](C)(c1ccc(Cl)cc1)c1csc(NC(=O)NC(C)CO)n1` (stereo in doubt) [Example A315, 1-(4-(2-(4-chlorophenyl)but-3-yn-2-yl)thiazol-2-yl)-3-(1-hydroxypropan-2-yl)urea], for which the IC50 was 650 nM in test [3] and 2770 nM at hALPK1-V1092A.
Turning to `C#C[C@@](C)(c1ccc(Cl)cc1)c1csc(NC(=O)N2CC(c3ccc(N4CCNCC4)c(F)c3)C2)n1` [Example A245], the IC50 on ALPK1 came to 16 nM; in test [3] (Homo sapiens, HEK293), 680 nM; against hALPK1-V1092A it was 304 nM.
Taken in the same sequence, the figures for `C#C[C@](C)(c1ccc(Cl)cc1)c1csc(NC(=O)NCCO)n1` [Example A175, (R)-1-(4-(2-(4-chlorophenyl)but-3-yn-2-yl)thiazol-2-yl)-3-(2-hydroxyethyl)urea] were 32 nM, 1310 nM and 4030 nM.
Consider `C#C[C@@](C)(c1ccc(Cl)cc1)c1csc(NC(=O)c2c(F)cc(N3CCNCC3)cc2F)n1` [Example C008, (S)-N-(4-(2-(4-chlorophenyl)but-3-yn-2-yl)thiazol-2-yl)-2,6-difluoro-4-(piperazin-1-yl)benzamide], for which, in test [1], the “kidney proinflammatory gene expression (IL6, TNFa, IL-1b, CCl2, KC)” value is given as “decreased expression of kidney proinflammatory genes” and the survival entry is given as “improved the animals' survival rate”.
Consider `C#C[C@@](C)(c1ccc(Cl)cc1)c1csc(NC(N)=O)n1` [Example A252, (S)-1-(4-(2-(4-chlorophenyl)but-3-yn-2-yl)thiazol-2-yl)urea], for which the IC50 against ALPK1 is 30 nM; in test [3] (Homo sapiens, HEK293), 530 nM; at hALPK1-V1092A, 723 nM.
The matching figures for `C#C[C@](C)(c1ccc(Cl)cc1)c1csc(NC(N)=O)n1` [Example A251, (R)-1-(4-(2-(4-chlorophenyl)but-3-yn-2-yl)thiazol-2-yl)urea]: 81 nM, 1670 nM and 892 nM.
With `C#CC(C)(c1ccc(Cl)cc1)c1csc(NC(=O)N2CC(N3CCNCC3)C2)n1` (centres unmarked) [Example A261, N-(4-(2-(4-chlorophenyl)but-3-yn-2-yl)thiazol-2-yl)-3-(piperazin-1-yl)azetidine-1-carboxamide], the IC50 against ALPK1 worked out at 83 nM; in test [3] (Homo sapiens, HEK293), 510 nM; at hALPK1-V1092A it was 573 nM.
The matching figures for `C#C[C@@](C)(c1ccc(Cl)cc1)c1csc(NC(=O)NCCS(N)(=O)=O)n1` [Example A289, 2-(3-(4-(2-(4-chlorophenyl)but-3-yn-2-yl)thiazol-2-yl)ureido)ethanesulfona-mide]: 54 nM, 470 nM and 439 nM.

(Values after patent US20240109853A1 (Shanghai Yao Yuan Biotechnology Co., Ltd., priority 2020, published 2024).)
